Assay results: PubChem BioAssay AID1996
≈ marks a conversion by molar mass, not a printed value.

details: buffer; pH 7.4; 200.0 µM

`CN(CC(=O)NCC1COc2ccccc2O1)S(=O)(=O)c1ccc(Cl)cc1` (centres undefined) and `NS(=O)(=O)c1ccc(N=Cc2c(O)c3ccccc3oc2=O)cc1` are within 1.5-fold of each other in solubility kinetic: 17.9 µg/mL (≈ 43.6 µM) for the first, 19.9 µg/mL (≈ 57.8 µM) for the second.

Compared with `CC(C)c1cccc(C(C)C)c1NC(=O)c1ccccc1`, `O=C(NC(=O)c1ccccc1)Nc1ccccn1` is 5.6-fold higher in solubility kinetic: 1.7 µg/mL (≈ 6.04 µM) for the first, 9.5 µg/mL (≈ 39.4 µM) for the second.

Compared with `COc1ccc(C(=O)Nc2ccc(C3CC3(Cl)Cl)cc2)cc1` (centres undefined), `CN(C(=O)c1ccc2ccccc2c1)c1ccccn1` is higher in solubility kinetic: < 0.7 µg/mL for the first, > 39.3 µg/mL for the second.

First: O=C(Nc1nonc1-c1ccc(F)cc1)c1ccco1
Second: CC(=O)Oc1ccc(-c2csc(Nc3cccc(C)n3)n2)cc1
The solubility kinetic of the first is higher: > 41 µg/mL for the first, < 0.2 µg/mL for the second.

First: CC(NC(=O)c1cccc(Cl)c1)C1CC2CCC1C2 (centres undefined)
Second: N#Cc1ccc(C(=O)NC23CC4CC(CC(C4)C2)C3)cc1
The solubility kinetic of the first is lower: < 0.6 µg/mL for the first, 0.8 µg/mL (≈ 2.85 µM) for the second.

First: CCC(C)NC(=O)CN1c2cccc3cccc(c23)S1(=O)=O (centres undefined)
Second: CCCNC(=O)c1csc(Nc2cccc3ccccc23)n1
The solubility kinetic of the first is 2-fold higher: 35.5 µg/mL (≈ 111 µM) for the first, 17.8 µg/mL (≈ 57.2 µM) for the second.

Compared with `COc1cccc(/C=C/C(=O)NCC2CCCCC2)c1`, `COc1cccc(CN2C(=O)NC3(CCCCCC3)C2=O)c1` is higher in solubility kinetic: 16.4 µg/mL (≈ 60 µM) for the first, > 45.4 µg/mL for the second.

First: c1cnc(N2CCN(Cc3ccc4c(c3)OCO4)CC2)cn1
Second: Cc1ccc(F)cc1S(=O)(=O)NCc1ccc(N2CCN(C)CC2)cc1
The solubility kinetic of the first is 2.8-fold higher: 44.5 µg/mL (≈ 149 µM) for the first, 16 µg/mL (≈ 42.4 µM) for the second.

`Cc1cc(C)c(NC(=S)NCCO)c(C)c1` and `CCOc1ccc(CCNC(=O)c2cc(C)on2)cc1OCC` cannot be ordered by solubility kinetic: > 35.8 µg/mL for the first, > 47.8 µg/mL for the second.

Compared with `COc1ccccc1NC(=S)NC(=O)CCc1ccccc1`, `COc1cccc(C(=O)OCC(=O)NCCCc2ccccc2)c1` is 17-fold higher in solubility kinetic: 0.7 µg/mL (≈ 2.23 µM) for the first, 12.1 µg/mL (≈ 37 µM) for the second.

`CN(O)/C=N/C(=S)Nc1ccc(Cl)cc1Cl` and `Cc1ccc[n+](C(C)C(=O)c2ccc(Cl)cc2)c1.[Br-]` (centres undefined) are within 1.5-fold of each other in solubility kinetic: 38.4 µg/mL (≈ 138 µM) for the first, 44.9 µg/mL for the second.

First: O=C(COc1ccc2cc(Br)ccc2c1Br)N1CCOCC1
Second: CN1CCCN(C(=O)COc2ccc(F)cc2Cl)CC1
The solubility kinetic of the first is lower: 13.9 µg/mL (≈ 32.4 µM) for the first, > 45.1 µg/mL for the second.

Compared with `Cn1c(N)c(C(=O)COC(=O)Cc2c(F)cccc2Cl)c(=O)n(C)c1=O`, `CC1(C)NC(=O)N(CC(=O)OCC(=O)c2ccc(Br)s2)C1=O` is higher in solubility kinetic: 31.9 µg/mL (≈ 83.1 µM) for the first, > 58.4 µg/mL for the second.

Compared with `Cc1ccc(OC(C)C(=O)N2CC(=O)Nc3ccccc32)cc1` (centres undefined), `COc1ccc(CNCc2ccc(C)cc2)c(OC)c1.O=C(O)C(=O)O` is lower in solubility kinetic: > 46.6 µg/mL for the first, 40.5 µg/mL for the second.

Going from `Cc1cccc(NC(=O)COC(=O)c2cc3ccccc3oc2=O)c1` to `Cc1cc2cc(CNC(=O)COc3ccccc3)ccc2n1C`, the solubility kinetic rises from < 0.7 µg/mL to 5.2 µg/mL (≈ 16.9 µM).

`O=C(C[n+]1ccccc1)Nc1ccccc1C(F)(F)F.[Cl-]` and `CC(C)(C)C(=O)C1=C(O)C(=O)N(Cc2ccccc2)C1c1ccccc1Cl` (centres undefined) cannot be ordered by solubility kinetic: > 47.5 µg/mL for the first, > 57.6 µg/mL for the second.

Going from `COc1ccc(/C=C2/C(=O)ON=C2C)cc1Br` to `COc1ccc(CSC2=NCCN2)cc1Br`, the solubility kinetic rises from 14 µg/mL (≈ 47.3 µM) to 30.9 µg/mL (≈ 103 µM) (2.2-fold).

Going from `N/C(Cc1ccc([N+](=O)[O-])cc1)=N\OC(=O)c1ccccc1F` to `COc1ccccc1CC(=O)N1CCN(c2ccccc2F)CC1`, the solubility kinetic rises from 2.6 µg/mL (≈ 8.19 µM) to 46.8 µg/mL (≈ 143 µM) (18-fold).

Going from `CCN(CC)c1ccc(/C=C2\C(=O)NC(=S)N(c3ccc(OC)cc3OC)C2=O)o1` to `COc1cc(/C=C2\SC(N)=NC2=O)cc(OC)c1`, the solubility kinetic falls from 56 µg/mL (≈ 130 µM) to 3.8 µg/mL (≈ 14.4 µM) (15-fold).

First: O=C(NC(=S)NCCC1=CCCCC1)c1cccnc1
Second: COc1ccc(CCNC(=O)c2csc3c2CCCC3)cc1OC
The solubility kinetic of the first is lower: 22.2 µg/mL (≈ 76.7 µM) for the first, > 51.8 µg/mL for the second.

First: O=C(/C=C/c1cccs1)NCc1cccs1
Second: Cc1cccc(C(=O)NCCNC(=O)c2ccccn2)c1
The solubility kinetic of the first is lower: 32.3 µg/mL (≈ 130 µM) for the first, > 42.5 µg/mL for the second.

Compared with `Cc1cc(C(=O)N2CCC(Cc3ccccc3)CC2)c(C)o1`, `CC1(C)CC2CC(C)(CN2C(=O)c2cc(-c3ccccc3)on2)C1` (centres undefined) is 13-fold lower in solubility kinetic: 41.6 µg/mL (≈ 140 µM) for the first, 3.3 µg/mL (≈ 10.2 µM) for the second.

`CCC(C(=O)Nc1ccc(Cl)cc1)N1CCCC1=O` (centres undefined) and `CCC(C)N1CCN(S(=O)(=O)c2ccc(NC(C)=O)cc2)CC1` (centres undefined) are within 1.5-fold of each other in solubility kinetic: 41.3 µg/mL (≈ 147 µM) for the first, 46.7 µg/mL (≈ 138 µM) for the second.

`COc1cc(NC(=O)c2cc(C)no2)c(OC)cc1Cl` and `Cc1cc(NC(=O)c2coc(=O)c(Br)c2)ccc1C(C)C` are within 1.5-fold of each other in solubility kinetic: 1.8 µg/mL (≈ 6.07 µM) for the first, 2.5 µg/mL (≈ 7.14 µM) for the second.

`CCOC(=O)Cn1nc(C)n(-c2c(C)cccc2C)c1=O` and `COc1nc(-c2ccccc2)nc(C)c1CC(=O)O` cannot be ordered by solubility kinetic: > 43.4 µg/mL for the first, > 38.7 µg/mL for the second.

`CC1CN(C(=O)c2cccc(Oc3ccccc3)c2)CC(C)O1` (centres undefined) and `COc1ccc(NS(=O)(=O)c2cccc(C(=O)O)c2)cc1S(=O)(=O)N1CCCCC1` cannot be ordered by solubility kinetic: > 46.7 µg/mL for the first, > 68.2 µg/mL for the second.

`CCS(=O)(=O)CCn1c([N+](=O)[O-])cnc1C` and `O=C(O)c1cc(C(=O)O)cc(N2C(=O)CSC2=S)c1` cannot be ordered by solubility kinetic: > 37.1 µg/mL for the first, > 44.6 µg/mL for the second.

`CCCN(CCC)C(=O)CC(c1ccccc1)C1CCOC(C)(C)C1` (centres undefined) and `CC(=O)Nc1c(O)c2cccc3c2n(c1=O)CCC3` are within 1.5-fold of each other in solubility kinetic: 50.3 µg/mL (≈ 146 µM) for the first, 36.5 µg/mL (≈ 141 µM) for the second.

Compared with `CN1CCN(c2nc3c(c(=O)[nH]2)CCC3)CC1`, `O=Cc1c(NCc2cccc(F)c2)c2ccccc2[nH]c1=O` is lower in solubility kinetic: > 35.1 µg/mL for the first, 19.8 µg/mL (≈ 66.8 µM) for the second.

Work on `O=C(/C=C/c1ccc(F)cc1)OCC(=O)c1ccc[nH]1` yielded a solubility kinetic of 2.6 µg/mL (≈ 9.51 µM).
